Laboratory results reported in US4758559A, “Pyrrolo[1,2-a] [4,1]benzoxazepine derivatives useful as calmodulin and histamine inhibitors” (Ciba-Geigy Corporation, priority 1986, dated 1988).

Legend:
calmodulin = calmodulin (Bos taurus, UniProt P62157); test: inhibition of the calmodulin induced activation of bovine c-AMP phosphodiesterase; format: biochemical; settings: in vitro; read-out: concentration inhibiting calmodulin-induced activation of phosphodiesterase by 50%
Experimental: The calmodulin inhibitory properties indicative of the antisecretory activity of said new compounds are determined in vitro by measuring the inhibition of the calmodulin induced activation of bovine c-AMP phosphodiesterase, according to the method described by J. A. Norman et al, Mol. Pharmacology 16, 1089 (1979).

[1] = test system: rat stomach parietal cells; test: inhibition of acid secretion in rat stomach parietal cells (14C-aminopyrine accumulation); format: cell-based; settings: histamine (1 mM) and isobutyl methylxanthine (0.1 mM)
Experimental: Inhibition of acid secretion, indicative of antiulcer activity, can be determined in vitro in rat stomach parietal cells as follows:
Approximately 1×10^6 parietal cells (18-22% enriched) are incubated in a balanced salt solution containing glucose, BSA (bovine serum albumin), 0.1 uCi of ^14 C-aminopyrine, histamine (1 mM), isobutyl methylxanthine (0.1 mM) and the compound to be tested under 95% oxygen at 37° C. for a period of 40 minutes. The cells are then washed, ruptured with distilled water and analyzed by scintillation spectrometry. A decrease in the accumulation of ^14 C-aminopyrine in the cells represents an indirect measure of the inhibition of acid secretion.

[2] = test system: diarrhea induced in rats by prostaglandin E2; test: inhibition of the diarrhea induced in rats by intraperitoneal prostaglandin E2; format: in vivo; settings: 10 mg/Kg p.o. in the rat
Experimental: The antidiarrheal effect of the compounds of the invention is determined by measuring the inhibition of the diarrhea induced in rats by the intraperitoneal administration of prostaglandin E2.
The test is carried out as follows:
Female Sprague-Dawley rats weighing 200-250 g and fasted for 18 hours are employed. The test compounds are dissolved in dimethylsulfoxide diluted with water to a 30-50% dimethyl sulfoxide concentration and administered orally by gastric lavage in a volume of 1 ml/Kg. Thirty or sixty minutes later, prostaglandin E2 (150 μg) is administered i.p. in a volume of 0.5 ml of water. The decrease in fecal excretion compared to untreated animals is measured for a period of 30 minutes after administration of prostaglandin E2.

- IC50 (calmodulin): ~3000 nM
- IC50 [1]: ~300 nM
Compound: CC1(CN2CCC(n3c(=O)[nH]c4ccccc43)CC2)OCc2ccccc2-n2cccc21 (stereo not drawn) [Example 1, 1,3-Dihydro-1-{1-[(4-methyl-4H,6H,-pyrrolo[1,2-a][4,1]-benzoxazepin-4-yl)-methyl]-4-piperidinyl}-2H-benzimidazol-2-one (1:1)maleate]
- prostaglandin E2 induced fecal excretion [2]: reduces prostaglandin E2 induced fecal excretion
